This note sets out measurements from paper PMC9607578, “Chemopreventive Effect on Human Colon Adenocarcinoma Cells of Styrylquinolines: Synthesis, Cytotoxicity, Proapoptotic Effect and Molecular Docking Analysis” (Molecules, 2022).

Broadly, the IC50 is the concentration that gives 50% inhibition.

Holding throughout (test): Cytotoxic activity, sulforhodamine B (SRB) staining
The test system of test [1] is HaCaT cells. Type of test: cell-based. To be noted: Homo sapiens, read-out: HaCaT IC50. As to the method: (§1) For the biological assays, the human colon adenocarcinoma cell line SW480 and its metastatic derivative SW620 were used. Additionally, the nonmalignant cell line HaCaT was used to find the selectivity index of the compounds. All cell lines were obtained by the Colombian Plant Chemistry Group of the Faculty of Exact and Natural Sciences of the University of Antioquia (Medellín, Colombia) from the European Collection of Authenticated Cell Cultures (ECACC, Salisbury, UK). Cells were cultured in a DMEM medium with 4500 mg/L of glucose and L-glutamine (Sigma-Aldrich, Burlington, MA, USA), supplemented with 10% heat-inactivated (56 °C) horse serum (Gibco, Waltham, MA, USA), 1% penicillin/streptomycin (Sigma-Aldrich, Burlington, MA, USA), and 1% non-essential amino acids (Sigma-Aldrich, Burlington, MA, USA). For all experiments, horse serum was reduced to 3%, and the medium was supplemented with […] of transferrin, 5 ng/mL of selenium, and […] of insulin (ITS; Sigma-Aldrich, Burlington, MA, USA). All cell lines were incubated at 37 °C in a 5% CO2 atmosphere. Additionally, cell cultures were constantly monitored with PCR (Sigma-Aldrich, Burlington, MA, USA) for Mycoplasma spp. to control contamination with this agent.
(§2) To evaluate the effect of styrylquinolines on the viability of the SW480, SW620, and HaCaT cell lines, sulforhodamine B (SRB) staining was used. SRB is a colorimetric assay that indirectly estimates the number of living cells based on the ability of SRB to bind to protein components of adherent cells. Briefly, the malignant cell lines were seeded at a final density of 2.0 × 10^4 cells/well, and the nonmalignant cell line was seeded at a final density of 1.5 × 10^4 cells/well in 96-well tissue culture plates. All cell lines were incubated at 37 °C in a 5% CO2 atmosphere for 24 h to enable cell adherence, and they were then treated for 24 and 48 h with increasing concentrations (0.01–160 µM) of the styrylquinolines or their respective precursors (8-hydroxyquinoline and resveratrol), as well as 1% DMSO (negative control) and 5-FU (standard drug). After treatment, cells were fixed with trichloroacetic acid (50% v/v; PanReac AppliChem, Barcelona, Spain) for a period of one hour at 4 °C. After this, the cells were incubated for 30 min at room temperature with 0.4% (w/v) SRB (Sigma-Aldrich, Burlington, MA, USA). To remove unbound SRB, the cells were washed with 1% acetic acid, and the plates were allowed to dry at room temperature. Protein-bound SRB was solubilized with 10 mM Tris-base (Amresco, Cleveland, OH, USA) for 30 min at room temperature under constant agitation, and absorbance was measured at 490 nm in a microplate reader (Bio-Rad iMark^TM, Hercules, CA, USA). Finally, the concentration of the compound that inhibits 50% of cell growth (IC50) and the selectivity index (SI) were determined.

Test [2] has as its system SW480 cells. Type of test: cell-based, human. Particulars: for IC50: Homo sapiens, read-out: SW480 IC50. The procedure: as §1, §2
In test [3] the test system is SW620 cells. Type of test: cell-based, human. Particulars: for IC50: Homo sapiens, read-out: SW620 IC50. The procedure:
as §1, §2

[4] abbreviates: SW480, 24 h treatment, mean ± SE.
[5] abbreviates: SW480, 48 h treatment, mean ± SE.
The mark [6] stands for this setting: SW-620, 24 h treatment, mean ± SE.
[7] abbreviates: SW-620, 48 h treatment, mean ± SE.

SMILES strings stand for the structures. Like-named read-outs stand apart in the source and are kept apart here. Where only a bound is given, the exact number is not on record here.

On to `Oc1cccc2cccnc12` [Compound 8-HQ, 8-hydroxyquinoline, reference compound], for which the half-maximal inhibitory concentration (IC50) worked out at 87.1 ± 9.4 µM in test [1] (24 h); 61.6 ± 4.8 µM in test [1] (48 h); 89.6 ± 11.8 µM in test [2] (SW480, 24 h); 38.8 ± 3.2 µM in test [2] (SW480, 48 h); 55.3 ± 3.6 µM in test [3] (SW-620, 24 h); 36.3 ± 4.8 µM in test [3] (SW-620, 48 h). For the same molecule, the “SI (IC50 HaCaT / IC50 SW480)” value in test [2] (24 h treatment) amounted to 1.0; in test [2] (48 h treatment) it was 1.6. In addition, the entries for the “SI (IC50 HaCaT / IC50 SW620)” value in test [3] (24 h treatment) and in test [3] (48 h treatment) were 1.6 and 1.7, respectively.

Regarding `Oc1ccc(/C=C/c2ccc3cccc(O)c3n2)c(O)c1` [Compound 3c], the IC50 in test [1] (24 h treatment, mean ± SE) was 110 ± 12.7 µM; in test [1] (48 h treatment, mean ± SE), 38.4 ± 6.2 µM; in test [2] (setting [4]), 37.1 ± 3.8 µM; in test [2] (setting [5]), 38.4 ± 3.8 µM; in test [3] (setting [6]), 62 ± 4 µM; in test [3] (setting [7]), 20.7 ± 3.1 µM. Also, the entries for the “SI (IC50 HaCaT / IC50 SW480)” value in test [2] (24 h treatment) and in test [2] (48 h treatment) were 3.0 and 1.0, respectively. The “SI (IC50 HaCaT / IC50 SW620)” value in test [3] (24 h treatment) was determined as 1.8; in test [3] (48 h treatment), 1.9.

As to `Oc1ccc(CCc2ccc3cccc(O)c3n2)cc1` [Compound 4a, 2-(4-hydroxyphenethyl)quinolin-8-ol], the IC50 in test [1] (24 h treatment, mean ± SE) worked out at 65.1 ± 8.4 µM; in test [1] (48 h treatment, mean ± SE) it was 69.7 ± 3 µM; in test [2] (setting [4]), 117 ± 5.3 µM; in test [2] (setting [5]), 63.2 ± 7.1 µM; in test [3] (setting [6]) it was 51 ± 5.6 µM; in test [3] (setting [7]), 28.9 ± 1.2 µM. Moreover, the “SI (IC50 HaCaT / IC50 SW480)” value came to 0.6 in test [2] (24 h treatment) and 1.1 in test [2] (48 h treatment). Also, the “SI (IC50 HaCaT / IC50 SW620)” value in test [3] (24 h treatment) is 1.3; in test [3] (48 h treatment), 2.4.

With `COc1cc(CCc2ccc3cccc(O)c3n2)ccc1O` [Compound 4b, 2-(4-hydroxy-3-methoxyphenethyl)quinolin-8-ol], the IC50 in test [1] (24 h treatment, mean ± SE) is 109 ± 8.1 µM; in test [1] (48 h treatment, mean ± SE) it was 53.6 ± 2.2 µM; in test [2] (setting [4]) it was 93.4 ± 16.6 µM; in test [2] (setting [5]), 43.2 ± 2 µM; in test [3] (setting [6]), 58.8 ± 5.5 µM; in test [3] (setting [7]) it was 18.6 ± 2 µM. For the same molecule, the “SI (IC50 HaCaT / IC50 SW480)” value in test [2] (24 h treatment) and in test [2] (48 h treatment) was 1.2 in each case. Moreover, the “SI (IC50 HaCaT / IC50 SW620)” value was found to be 1.9 in test [3] (24 h treatment) and 2.9 in test [3] (48 h treatment).

Turning to `Oc1cccc(/C=C/c2ccc3cccc(O)c3n2)c1O` [Compound 3b], the IC50 stood at 57.2 ± 6.3 µM in test [1] (24 h treatment, mean ± SE); 33.5 ± 4.9 µM in test [1] (48 h treatment, mean ± SE); 72.6 ± 11 µM in test [2] (setting [4]); 39 ± 3.6 µM in test [2] (setting [5]); 49.1 ± 4.6 µM in test [3] (setting [6]); 9.7 ± 2 µM in test [3] (setting [7]). Further, the “SI (IC50 HaCaT / IC50 SW480)” value in test [2] (24 h treatment) is reported as 0.8; in test [2] (48 h treatment), 0.9. The “SI (IC50 HaCaT / IC50 SW620)” value is recorded as 1.2 in test [3] (24 h treatment) and 3.4 in test [3] (48 h treatment).

With `O=c1[nH]cc(F)c(=O)[nH]1` [Compound 5-FU, 5-Fluorouracil, reference compound], the IC50 is greater than 2000 µM in test [1] (24 h treatment, mean ± SE); 38.8 ± 7.2 µM in test [1] (48 h treatment, mean ± SE); greater than 2000 µM in test [2] (setting [4]); 748 ± 158 µM in test [2] (setting [5]); greater than 2000 µM in test [3] (setting [6]); 296 ± 39.7 µM in test [3] (setting [7]). Moreover, the “SI (IC50 HaCaT / IC50 SW480)” value in test [2] (24 h treatment) was 2.0. Further, the “SI (IC50 HaCaT / IC50 SW620)” value in test [3] (48 h treatment) is 0.1.

On to `Oc1ccc(/C=C/c2cc(O)cc(O)c2)cc1` [Resveratrol, resveratrol, reference compound], for which the IC50 in test [1] (24 h treatment, mean ± SE) came out at 180 ± 7.2 µM; in test [1] (48 h treatment, mean ± SE), 98.2 ± 7 µM; in test [2] (setting [4]), 217 ± 12.8 µM; in test [2] (setting [5]), 136 ± 9.1 µM; in test [3] (setting [6]), 169 ± 3.9 µM; in test [3] (setting [7]) it was 125 ± 4.6 µM. Moreover, the “SI (IC50 HaCaT / IC50 SW480)” value in test [2] (24 h treatment) was 0.8; in test [2] (48 h treatment) it was 0.7. Also, the “SI (IC50 HaCaT / IC50 SW620)” value is 1.1 in test [3] (24 h treatment) and 0.8 in test [3] (48 h treatment).
